Source: PubChem BioAssay AID256 (DTP/NCI, 2004)
“And” between values parts separate entries of the source, which are not always exact repeats. Identical values can stand only once. Inconclusive results and toxic doses are left out. Rule for the calls: active = survival T/C of 150% or more; inactive = T/C below 125% in these data.

System: CD2F1 mice, L1210 leukemia ip, survival T/C
Assay: NCI In Vivo Anticancer Drug Screen. Data for tumor model L1210 Leukemia (intraperitoneal) in CD2F1 (CDF1) mice
Conditions: higher = longer survival
How it was run: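 Tumor-bearing mice (transplanted tumor) were split into treated and vehicle control groups, and the measured endpoint of each treated group was divided by that of its vehicle controls.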

[1] = endpoint: mean survival time, dose: 25.0 mg/kg/injection, schedule: Q01DX009 (ip), vehicle: saline with Tween-80
[2] = endpoint: mean survival time, dose: 50.0 mg/kg/injection, schedule: Q01DX009 (ip), vehicle: saline with Tween-80
[3] = endpoint: mean survival time, dose: 100.0 mg/kg/injection, schedule: Q01DX009 (ip), vehicle: saline with Tween-80
[4] = endpoint: mean survival time, dose: 200.0 mg/kg/injection, schedule: Q01DX009 (ip), vehicle: saline with Tween-80
[5] = endpoint: mean survival time, dose: 400.0 mg/kg/injection, schedule: Q01DX009 (ip), vehicle: saline with Tween-80
[6] = endpoint: mean survival time, dose: 100.0 mg/kg/injection, schedule: Q01DX001 (ip), vehicle: Klucel (hydroxypropylcellulose) (HPC)
[7] = endpoint: mean survival time, dose: 200.0 mg/kg/injection, schedule: Q01DX001 (ip), vehicle: Klucel (hydroxypropylcellulose) (HPC)
[8] = endpoint: mean survival time, dose: 400.0 mg/kg/injection, schedule: Q01DX001 (ip), vehicle: Klucel (hydroxypropylcellulose) (HPC)
[9] = endpoint: mean survival time, dose: 100.0 mg/kg/injection, schedule: Q04DX003 (ip), vehicle: saline with Tween-80
[10] = endpoint: mean survival time, dose: 200.0 mg/kg/injection, schedule: Q04DX003 (ip), vehicle: saline with Tween-80
[11] = endpoint: mean survival time, dose: 400.0 mg/kg/injection, schedule: Q04DX003 (ip), vehicle: saline with Tween-80
[12] = endpoint: mean survival time, dose: 75.0 mg/kg/injection, schedule: Q01DX001 (ip), vehicle: other
[13] = endpoint: mean survival time, dose: 150.0 mg/kg/injection, schedule: Q01DX001 (ip), vehicle: other
[14] = endpoint: mean survival time, dose: 300.0 mg/kg/injection, schedule: Q01DX001 (ip), vehicle: other
[15] = endpoint: mean survival time, dose: 25.0 mg/kg/injection, schedule: Q04DX003 (ip), vehicle: saline
[16] = endpoint: mean survival time, dose: 100.0 mg/kg/injection, schedule: Q04DX003 (ip), vehicle: saline

Measured: T/C

CCCCCCCCCCCCCCCCOP(=O)(O)OCCCCCCCCCCCCCCCC
inactive: [1] 96 % of control | [2] 102 % of control | [3] 95 % of control

COc1ccc(C(=O)c2no[n+]([O-])c2C(=O)c2ccc(OC)cc2)cc1
inactive: endpoint: mean survival time, dose: 12.5 mg/kg/injection, schedule: Q01DX009 (ip), vehicle: saline with Tween-80 100 % of control | [1] 97 % of control | [2] 101 % of control | [3] 97 % of control and 98 % of control | [4] 98 % of control and 102 % of control | [5] 97 % of control and 110 % of control

O=C1c2ccccc2C(=O)c2c(O)c3c(c(O)c21)CCCC3O (stereo not drawn)
inactive: endpoint: mean survival time, dose: 0.05 mg/kg/injection, schedule: Q01DX001 (ip), vehicle: saline 101 % of control | endpoint: mean survival time, dose: 0.1 mg/kg/injection, schedule: Q01DX001 (ip), vehicle: saline 98 % of control | endpoint: mean survival time, dose: 0.2 mg/kg/injection, schedule: Q01DX001 (ip), vehicle: saline 101 % of control | endpoint: mean survival time, dose: 0.4 mg/kg/injection, schedule: Q01DX001 (ip), vehicle: saline 101 % of control | endpoint: mean survival time, dose: 0.8 mg/kg/injection, schedule: Q01DX001 (ip), vehicle: saline 101 % of control

ClCCN(CCCl)c1ccc(N=Nc2ccc(Cl)cc2)cc1
inactive: [6] 94 % of control | [7] 94 % of control | [8] 97 % of control

Cc1nc2ccccc2c(=O)n1-c1ccccc1Cl
inactive: [3] 100 % of control | [9] 100 % of control | [4] 105 % of control | [10] 102 % of control | [5] 117 % of control | [11] 112 % of control

CCn1c(C)nc2cc(C(N)=O)ccc21
inactive: [3] 97 % of control | [9] 100 % of control | [4] 91 % of control | [10] 96 % of control | [11] 102 % of control

Cc1nnc(NS(=O)(=O)c2ccc(N=Nc3nc4[nH]c(N)nc(=S)c4[nH]3)cc2)s1
inactive: endpoint: mean survival time, dose: 12.5 mg/kg/injection, schedule: Q01DX009 (ip), vehicle: Klucel (hydroxypropylcellulose) (HPC) 110 % of control | endpoint: mean survival time, dose: 25.0 mg/kg/injection, schedule: Q01DX009 (ip), vehicle: Klucel (hydroxypropylcellulose) (HPC) 116 % of control | endpoint: mean survival time, dose: 50.0 mg/kg/injection, schedule: Q01DX009 (ip), vehicle: Klucel (hydroxypropylcellulose) (HPC) 122 % of control

NC(=O)N/N=C1\CC2C=CCC12 (stereo not drawn)
inactive: [3] 95 % of control | [4] 98 % of control

O=c1ccccn1C1CC(O)C(CO)O1 (stereo not drawn)
inactive: endpoint: mean survival time, dose: 100.0 mg/kg/injection, schedule: Q01DX005 (ip), vehicle: saline 101 % of control | endpoint: mean survival time, dose: 200.0 mg/kg/injection, schedule: Q01DX005 (ip), vehicle: saline 103 % of control

C/C(=N\NC(N)=O)C(F)(F)F
inactive: [2] 101 % of control | [3] 102 % of control | [9] 97 % of control | [4] 102 % of control | [10] 108 % of control

OC1CC2C3C4C1C1C2C3C41 (stereo not drawn)
inactive: [3] 104 % of control | [9] 107 % of control | [4] 95 % of control | [10] 98 % of control | [5] 95 % of control | [11] 97 % of control

COc1cc(CNCc2ccccc2)ccc1O
inactive: [12] 90 % of control | [13] 93 % of control | [14] 95 % of control

CN(C)C1CC[N-]CC1.CN(C)C1CC[N-]CC1.[Cl][Pt+2][Cl]
inactive: [15] 103 % of control | endpoint: mean survival time, dose: 50.0 mg/kg/injection, schedule: Q04DX003 (ip), vehicle: saline 109 % of control | [16] 114 % of control

COC1/C=C/C=C(/C)Cc2cc(O)c(Cl)c(c2)N(C)C(=O)CC(OC(=O)C(C)C)C2(C)OC2C(C)C2CC1(O)NC(=O)O2 (stereo not drawn)
inactive: endpoint: mean survival time, dose: 0.12 mg/kg/injection, schedule: Q01DX009 (ip), vehicle: saline + alcohol 111 % of control | endpoint: mean survival time, dose: 0.5 mg/kg/injection, schedule: Q01DX009 (ip), vehicle: saline + alcohol 111 % of control | endpoint: mean survival time, dose: 1.0 mg/kg/injection, schedule: Q01DX009 (ip), vehicle: saline + alcohol 122 % of control | endpoint: mean survival time, dose: 2.0 mg/kg/injection, schedule: Q01DX009 (ip), vehicle: saline + alcohol 90 % of control | endpoint: median survival time, dose: 0.06 mg/kg/injection, schedule: Q01DX009 (ip), vehicle: saline + alcohol 117 % of control | endpoint: median survival time, dose: 0.12 mg/kg/injection, schedule: Q01DX009 (ip), vehicle: saline + alcohol 117 % of control | endpoint: median survival time, dose: 0.5 mg/kg/injection, schedule: Q01DX009 (ip), vehicle: saline + alcohol 122 % of control | endpoint: median survival time, dose: 1.0 mg/kg/injection, schedule: Q01DX009 (ip), vehicle: saline + alcohol 120 % of control | endpoint: median survival time, dose: 2.0 mg/kg/injection, schedule: Q01DX009 (ip), vehicle: saline + alcohol 123 % of control

CCCCCCCCCCCCCC(=O)O.[Pb]
inactive: [12] 98 % of control | [13] 101 % of control | [14] 101 % of control

O=[N+]([O-])c1ccc(CSC2=NCCN2)cc1
inactive: endpoint: mean survival time, dose: 100.0 mg/kg/injection, schedule: Q01DX009 (ip), vehicle: saline 106 % of control

O=P(O)(O)OP(=O)(O)OCC1OC(n2cnc3c(=S)nc[nH]c32)C(O)C1O (stereo not drawn)
inactive: endpoint: mean survival time, dose: 200.0 mg/kg/injection, schedule: Q01DX009 (ip), vehicle: saline sonified 123 % of control | endpoint: mean survival time, dose: 400.0 mg/kg/injection, schedule: Q01DX009 (ip), vehicle: saline sonified 112 % of control

CCC[CH2][Sn]1([CH2]CCC)[O]C2C(CO)OC(n3ccc4c(N)ncnc43)C2[O]1 (stereo not drawn)
inactive: endpoint: mean survival time, dose: 0.39 mg/kg/injection, schedule: Q01DX005 (ip), vehicle: water 97 % of control | endpoint: mean survival time, dose: 0.78 mg/kg/injection, schedule: Q01DX005 (ip), vehicle: water 103 % of control | endpoint: mean survival time, dose: 1.56 mg/kg/injection, schedule: Q01DX005 (ip), vehicle: other 111 % of control | endpoint: mean survival time, dose: 1.56 mg/kg/injection, schedule: Q01DX005 (ip), vehicle: water 90 % of control | endpoint: mean survival time, dose: 3.13 mg/kg/injection, schedule: Q01DX005 (ip), vehicle: other 95 % of control | endpoint: mean survival time, dose: 3.13 mg/kg/injection, schedule: Q01DX005 (ip), vehicle: water 106 % of control

CN(C)C1C(CO)C(CO)C1(C)C (stereo not drawn)
inactive: endpoint: mean survival time, dose: 50.0 mg/kg/injection, schedule: Q01DX001 (ip), vehicle: saline with Tween-80 98 % of control | endpoint: mean survival time, dose: 100.0 mg/kg/injection, schedule: Q01DX001 (ip), vehicle: saline with Tween-80 97 % of control | endpoint: mean survival time, dose: 200.0 mg/kg/injection, schedule: Q01DX001 (ip), vehicle: saline with Tween-80 98 % of control | endpoint: mean survival time, dose: 400.0 mg/kg/injection, schedule: Q01DX001 (ip), vehicle: saline with Tween-80 97 % of control

CO[C@H]1C[C@H](O[C@H]2CC[C@]3(C=O)[C@H]4CC[C@]5(C)[C@@H](C6=CC(=O)OC6)CC[C@]5(O)[C@@H]4CC[C@]3(O)C2)O[C@H](C)[C@H]1O[C@@H]1O[C@H](CO)[C@@H](O)[C@H](O)[C@H]1O
inactive: endpoint: mean survival time, dose: 0.25 mg/kg/injection, schedule: Q01DX009 (ip), vehicle: saline 102 % of control | endpoint: mean survival time, dose: 0.5 mg/kg/injection, schedule: Q01DX009 (ip), vehicle: saline 96 % of control | endpoint: mean survival time, dose: 1.0 mg/kg/injection, schedule: Q01DX009 (ip), vehicle: saline 110 % of control

Cc1ccc(S(=O)(=O)OCCOc2ccc(C(C)(C)CC(C)(C)C)cc2)cc1
inactive: [6] 93 % of control | [7] 98 % of control | [8] 94 % of control

CC1=NCCc2ccccc21
inactive: endpoint: mean survival time, dose: 12.5 mg/kg/injection, schedule: Q04DX003 (ip), vehicle: saline 102 % of control | [15] 93 % of control

NNc1nnc(Cl)cc1N
inactive: [9] 109 % of control

CCN(CC)C1=C(C)S(=O)(=O)C1c1ccc(C)cc1 (stereo not drawn)
inactive: [2] 102 % of control | endpoint: mean survival time, dose: 100.0 mg/kg/injection, schedule: Q01DX001 (ip), vehicle: saline 97 % of control | [3] 98 % of control | [16] 103 % of control | endpoint: mean survival time, dose: 200.0 mg/kg/injection, schedule: Q01DX001 (ip), vehicle: saline 97 % of control | [4] 98 % of control | endpoint: mean survival time, dose: 200.0 mg/kg/injection, schedule: Q04DX003 (ip), vehicle: saline 109 % of control | endpoint: mean survival time, dose: 400.0 mg/kg/injection, schedule: Q01DX001 (ip), vehicle: saline 97 % of control | endpoint: mean survival time, dose: 400.0 mg/kg/injection, schedule: Q04DX003 (ip), vehicle: saline 100 % of control

O=C(Nc1cc(Cl)ccc1Cl)c1ccc(Cl)cc1Cl
inactive: [2] 92 % of control | [3] 87 % of control | [9] 90 % of control | [4] 92 % of control | [10] 88 % of control

CCCCCCCCCCCCC(=O)O.[Pb]
inactive: [12] 107 % of control | [13] 104 % of control | [14] 97 % of control
